In patent US10077289B2, “Cyclosporins modified on the MeBmt sidechain by heterocyclic rings” (priority 2015, dated 2018):
≈ marks a conversion by molar mass, not a printed value. Read-outs that look alike come from different tables or passages of the source.

What was measured:
[1] = Water Solubility Assay (measured in pH 7.8 buffer); format: physicochemical; settings: kinetic from dmso stock, 25 °C
Procedure: Water Solubility Assay (Measured in pH 7.8 Buffer)
The aqueous solubility of a compound of Formula I in buffer (pH 7.8) was measured by recording the onset of precipitation of the compound as a function of increasing concentration. The onset of precipitation, if it occurred, was detected by an increase in absorbance at 650 nm.
Assay Buffer: 35 mM HEPES pH 7.8
Stock solutions of Control and Test Compounds: 10 mM in 100% DMSO.
10 mM stock solutions of control and test compounds were prepared in 100% DMSO.
Assay buffer (247.5 μl) was placed into flat bottomed transparent 96-well plate. For blank samples DMSO (2.5 μl) was added. For test and control samples 2.5 μl of the appropriate DMSO dilution stocks were added to the appropriate well. All test and control compounds were performed in triplicate.
The plates were sealed with adhesive plate seal and shaken at 250 rpm at 25° C. for 18 h on a plate shaker. After incubation the plate seals were taken off and any bubbles observed in wells removed. The plates were read on a SpectraMaxM5 with a 5 s pre-shake at 650 nm. Data files were transferred to the appropriate worksheet and the solubility range of the compounds was calculated from the data. The values shown in the Tables indicate the concentration in μM (micromolar) at which the compound remains in solution.

[2] = target: calcineurin/cyclophilin A (Homo sapiens (Human), UniProt P62937+P63098+Q08209); assay: Calcineurin Phosphatase (CaN) Assay (+CypA); format: biochemical; settings: in the presence of Cyp A, 1:1 complex with inhibitor; read-out: Calcineurin Phosphatase (CaN) Assay (+CypA) IC50
Excerpt: Calcineurin Phosphatase (CaN) Assay
The calcineurin phosphatase assay is a means for estimating the immunosuppressive potential of a test compound. Calcineurin is a serine-threonine protein phosphatase that on activation dephosphorylates members of the nuclear factor of activated T cells (NFAT), which are important in T lymphocyte activation.
To investigate the immunosuppressive potential of exemplary compounds of Formula I, which are cyclosporin analogs, their ability to inhibit calcineurin activity was measured in the presence and absence of Cyp A.
The CaN assay kit used is based on a colorimetric assay for measuring calcineurin phosphatase activity, and it is commercially available (Enzo Life Sciences and Calbiochem). Calmodulin is also required for calcineurin activity and RII phosphopeptide is used as an efficient peptide substrate for calcineurin. […] The detection of free phosphate released is based on the classic Malachite green assay.
Enzo Life Sciences CaN Assay Kit: BML-AK804
Malachite Green: BIOMOL Green™ reagent
Calmodulin (Human, recombinant): was thawed on ice, diluted 1:50 with 2× assay buffer, and then stored on ice.
Calcineurin: was thawed quickly, stored on ice immediately, diluted 1:12.5 with 1× assay buffer, and then stored on ice.
R-II Substrate: 915 μL ultrapure water (UPW) was added to the 1.5 mg vial substrate to give a final concentration of 0.75 mM.
Inhibitors: 2.5 mM inhibitor in 100% DMSO.
Cyp A: recombinant human CypA (Sigma C3805), 1 mg/ml; Recombinant 6-His tagged CypA prepared by the University of Edinburgh was also used.
Inhibitor dilutions: inhibitor compounds were diluted in UPW in polypropylene low-binding 96 well plates at 5× the final assay concentration.
Assay Setup: using the half area 96 well plates supplied with the kit, 10 μl UPW was added to duplicate wells to provide the non-inhibited control. 10 μl of the inhibitor or the inhibitor/Cyp A complex was added to the appropriate sample wells. 25 μl of the 2× assay buffer with CaM was added to all wells, then 5 μl of CaN was added to all wells (40 U per well final concentration) except duplicate ‘no calcineurin blank’ wells to which 5 μL 1× assay buffer was added. The assay plate was placed in an oven at 30° C. for 15 minutes to equilibrate to the reaction temperature. The reaction was started by the addition of 10 μl RII-peptide (0.15 mM final concentration). The reaction was allowed to proceed at 30° C. for a time period in which the reaction is linear for about 60 minutes. The reaction was then terminated by adding 100 μl of the Malachite Green reagent. The color was allowed to develop for 15-30 minutes at room temperature before the absorbance at 620 nm was measured using a plate reader (Molecular Devices—SpectraMax M5). The data were analyzed by subtracting ‘no Calcineurin blank’ from all the absorbance readings and plotting the background corrected absorbances against Log10 inhibitor concentration. A sigmoidal-dose response curve was fitted to the data using GraphPad Prism Software.
It exerts its immunosuppressive activity by binding to cyclophilin A to form a complex, which then binds to calcineurin and thereby inhibits calcineurin activity.

[3] = target: Human recombinant cyclophilin A (Cyp A) (Homo sapiens (Human), UniProt P62937); assay: Protease-free PPIase assay
Procedure: Protease-Free PPIase Assay
The protease-free PPIase assay measures the rate of cis to trans conversion of a peptide substrate catalyzed by the enzyme cyclophilin A. Addition of a cyclophilin A inhibitor (e.g., a test compound) slows the catalyzed rate and a Ki value is obtained.
35 mM HEPES pH 7.8, filtered through a 0.2 μm filter. 50 μM DTT was added prior to use each day and then the buffer was stored on ice.
Human recombinant cyclophilin A (Cyp A) (Sigma C3805) enzyme was diluted to 1 μM with enzyme dilution buffer (20 mM HEPES pH 7.8, 40% glycerol, 50 μM DTT and 1 μM BSA) and stored at −20° C.
Succinimide-Ala-Ala-Pro-Phe-p-nitroanilide (SUC-AAPF-pNA) (from Bachem AG, L-1400), 20 mg/ml prepared in 0.5 M LiCl in trifluoroethanol.
The temperature is monitored by the use of a temperature probe. To prevent UV degradation of test compounds, the light below 290 nm was blocked using a glass slide in the light path. 1.5 ml of the assay buffer was put into a 3 ml quartz cuvette and cooled to 10.0±0.1° C. while stirring (vigorous but not so fast as to produce cavitation). The inhibitor was diluted in 100% DMSO, and then added to the assay to a maximum final concentration of 0.5% DMSO in the assay. A blank spectrum was obtained, then 3 μL of enzyme was added (2 nM final concentration) and then 3 μL substrate (60 μM final concentration) added. The absorbance was measured at 330 nm for 300 s or 500 s for blank runs (NOTE: the substrate must be added in one quick injection and the measurements started immediately to minimize mixing errors).
A first order rate equation was fitted to the absorbance data, for each concentration of inhibitor, to obtain the rate constant (the first 10 to 15 seconds were excluded as mixing causes errors in this portion of curve). The catalytic rate was calculated from the enzymatic rate constant minus the background rate constant. An exponential curve was generated using the catalytic rate constants versus the inhibitor concentration to obtain the Ki value for the inhibitor. The Ki value is indicative of the binding affinity between the test compound and cyclophilin A.

[4] = 35 mM HEPES buffer pH 7.8, aqueous buffer, 35 mM HEPES pH 7.8, 1% DMSO, 18 h, read-out: Water Solubility Assay, concentration at which the compound remains in solution
[5] = read-out: Protease-free PPIase Assay Ki, human recombinant Cyp A, 10 °C

| SMILES | IC50 [2] [nM] | solubility at 18 h ([1]; pH 7.8, aqueous buffer) [µM] | Ki [3] [nM] | solubility at 18 h [1, 4] [µM] | Ki [3, 5] [nM] |
| --- | --- | --- | --- | --- | --- |
| CC[C@H]1NC(=O)[C@@H]([C@H](O)[C@H](C)Cc2nccn2Cc2ccccn2)N(C)C(=O)[C@@H](C(C)C)N(C)C(=O)[C@@H](CC(C)C)N(C)C(=O)[C@@H](CC(C)C)N(C)C(=O)[C@H](C)NC(=O)[C@@H](C)NC(=O)[C@@H](CC(C)C)N(C)C(=O)[C@@H](C(C)C)NC(=O)[C@H](CC(C)C)N(C)C(=O)[C@@H](C)N(C)C1=O [Compound 5, [(2S,3R,4R)-3-Hydroxy-4-methyl-2-(methylamino)-5-(1-(pyridin-2-yl-methyl)-1H-imidazol-2-yl)-pentanoic acid]^1 [(R)-methyl-Sar]^3cyclosporin A] | 8600 | – | – | > 100 | 4.1 |
| CC[C@H]1NC(=O)[C@@H]([C@H](O)[C@H](C)Cc2nccn2CCCO)N(C)C(=O)[C@@H](C(C)C)N(C)C(=O)[C@@H](CC(C)C)N(C)C(=O)[C@@H](CC(C)C)N(C)C(=O)[C@H](C)NC(=O)[C@@H](C)NC(=O)[C@@H](CC(C)C)N(C)C(=O)[C@@H](C(C)C)NC(=O)[C@H](CC(C)C)N(C)C(=O)[C@@H](C)N(C)C1=O [Compound 6, [(2S,3R,4R)-3-Hydroxy-5-(1-(3-hydroxypropyl)-1H-imidazol-2-yl)-4-methyl-2-(methylamino)pentanoic acid]^1 [(R)-methyl-Sar]^3 cyclosporin A] | 4750 | > 100 | 5.1 | – | – |
| CC[C@H]1NC(=O)[C@@H]([C@H](O)[C@H](C)Cc2nccn2CCc2cccnc2)N(C)C(=O)[C@@H](C(C)C)N(C)C(=O)[C@@H](CC(C)C)N(C)C(=O)[C@@H](CC(C)C)N(C)C(=O)[C@H](C)NC(=O)[C@@H](C)NC(=O)[C@@H](CC(C)C)N(C)C(=O)[C@@H](C(C)C)NC(=O)[C@H](CC(C)C)N(C)C(=O)[C@@H](C)N(C)C1=O [Compound 7, [(2S,3R,4R)-3-Hydroxy-4-methyl-2-(methylamino) 5-(1-(pyridin-3-yl-ethyl)-1H-imidazol-2-yl)pentanoic acid]^1 [(R)-methyl-Sar]^3 cyclosporin A] | 7850 | – | – | > 100 | 5.6 |
| CC[C@H]1NC(=O)[C@@H]([C@H](O)[C@H](C)Cc2nc3ccccc3[nH]2)N(C)C(=O)[C@@H](C(C)C)N(C)C(=O)[C@@H](CC(C)C)N(C)C(=O)[C@@H](CC(C)C)N(C)C(=O)[C@H](C)NC(=O)[C@@H](C)NC(=O)[C@@H](CC(C)C)N(C)C(=O)[C@@H](C(C)C)NC(=O)[C@H](CC(C)C)N(C)C(=O)[C@@H](C)N(C)C1=O [Compound 9, [(2S,3R,4R)-1-(1H-Benzimidazol-2-yl)-3-hydroxy-4-methyl-2-(methylamino)pentanoic acid]^1 [(R)-methyl-Sar]^3 cyclosporin A] | > 10000 | 25 to 50 (≈ 32.3 to 64.6 µg/mL) | 2.3 | – | – |
| CC[C@H]1NC(=O)[C@@H]([C@H](O)[C@H](C)CCCc2cccnc2)N(C)C(=O)[C@@H](C(C)C)N(C)C(=O)[C@@H](CC(C)C)N(C)C(=O)[C@@H](CC(C)C)N(C)C(=O)[C@H](C)NC(=O)[C@@H](C)NC(=O)[C@@H](CC(C)C)N(C)C(=O)[C@@H](C(C)C)NC(=O)[C@H](CC(C)C)N(C)C(=O)[C@@H](C)N(C)C1=O [Compound 11, [(2S,3R,4S)-3-Hydroxy-4-methyl-2-(methylamino)-7-(pyridin-3-yl)-heptanoic acid]^1 [(R)-methyl-Sar]^3 cyclosporin A] | 2500 | 50 to 75 (≈ 64.1 to 96.1 µg/mL) | 5.6 | – | – |
| CC[C@H]1NC(=O)[C@@H]([C@H](O)[C@H](C)CCCc2ccccn2)N(C)C(=O)[C@@H](C(C)C)N(C)C(=O)[C@@H](CC(C)C)N(C)C(=O)[C@@H](CC(C)C)N(C)C(=O)[C@H](C)NC(=O)[C@@H](C)NC(=O)[C@@H](CC(C)C)N(C)C(=O)[C@@H](C(C)C)NC(=O)[C@H](CC(C)C)N(C)C(=O)[C@@H](C)N(C)C1=O [Compound 12, [(2S,3R,4R)-3-Hydroxy-4-methyl-2-(methylamino)-7-(pyridin-2-yl)-heptanoic acid]^1 [(R)-methyl-Sar]^3 cyclosporin A] | 1400 | 50 to 75 (≈ 64.1 to 96.1 µg/mL) | 3.8 | – | – |

Now from value to compound, other results behind:

| IC50 [2] [nM] | solubility at 18 h ([1]; pH 7.8, aqueous buffer) [µM] | Ki [3] [nM] | SMILES | solubility at 18 h [1, 4] [µM] | Ki [3, 5] [nM] |
| --- | --- | --- | --- | --- | --- |
| 1450 | 25 to 50 (≈ 32.5 to 65.1 µg/mL) | 3.2 | CC[C@H]1NC(=O)[C@@H]([C@H](O)[C@H](C)CCCc2csc(C)n2)N(C)C(=O)[C@@H](C(C)C)N(C)C(=O)[C@@H](CC(C)C)N(C)C(=O)[C@@H](CC(C)C)N(C)C(=O)[C@H](C)NC(=O)[C@@H](C)NC(=O)[C@@H](CC(C)C)N(C)C(=O)[C@@H](C(C)C)NC(=O)[C@H](CC(C)C)N(C)C(=O)[C@@H](C)N(C)C1=O [Compound 13, [(2S,3R,4R)-3-Hydroxy-4-methyl-2-(methylamino)-7-(2-methyl-thiazol-4-yl)-heptanoic acid]^1 [(R)-methyl-Sar]^3 cyclosporin A] | – | – |
| 1600 | 50 to 75 (≈ 64.1 to 96.1 µg/mL) | 2.5 | CC[C@H]1NC(=O)[C@@H]([C@H](O)[C@H](C)CCCc2ccncc2)N(C)C(=O)[C@@H](C(C)C)N(C)C(=O)[C@@H](CC(C)C)N(C)C(=O)[C@@H](CC(C)C)N(C)C(=O)[C@H](C)NC(=O)[C@@H](C)NC(=O)[C@@H](CC(C)C)N(C)C(=O)[C@@H](C(C)C)NC(=O)[C@H](CC(C)C)N(C)C(=O)[C@@H](C)N(C)C1=O [Compound 15, [(2S,3R,4R)-3-Hydroxy-4-methyl-2-(methylamino)-7-(pyridin-4-yl)-heptanoic acid]^1 [(R)-methyl-Sar]^3 cyclosporin A] | – | – |
